Source: PubChem BioAssay AID248 (DTP/NCI, 2004)
Inconclusive results and toxic doses are left out.

System: L1210 leukemia ip in BDF1 mice, survival T/C
Test: NCI In Vivo Anticancer Drug Screen. Data for tumor model L1210 Leukemia (intraperitoneal) in B6D2F1 (BDF1) mice
Settings: higher = longer survival
Procedure, shortened: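 Mice bearing the transplanted tumor received compound or vehicle. Survival of the treated group was divided by that of the vehicle-treated control group to give the ratio.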

[1] = endpoint: mean survival time, dose: 100.0 mg/kg/injection, schedule: Q04DX003 (ip), vehicle: Klucel (hydroxypropylcellulose) (HPC)
[2] = endpoint: mean survival time, dose: 200.0 mg/kg/injection, schedule: Q04DX003 (ip), vehicle: Klucel (hydroxypropylcellulose) (HPC)
[3] = endpoint: mean survival time, dose: 400.0 mg/kg/injection, schedule: Q04DX003 (ip), vehicle: Klucel (hydroxypropylcellulose) (HPC)
[4] = endpoint: mean survival time, dose: 50.0 mg/kg/injection, schedule: Q01DX009 (ip), vehicle: Klucel (hydroxypropylcellulose) (HPC)
[5] = endpoint: mean survival time, dose: 100.0 mg/kg/injection, schedule: Q01DX009 (ip), vehicle: Klucel (hydroxypropylcellulose) (HPC)
[6] = endpoint: mean survival time, dose: 200.0 mg/kg/injection, schedule: Q01DX009 (ip), vehicle: Klucel (hydroxypropylcellulose) (HPC)
[7] = endpoint: mean survival time, dose: 100.0 mg/kg/injection, schedule: Q01DX001 (ip), vehicle: saline
[8] = endpoint: mean survival time, dose: 200.0 mg/kg/injection, schedule: Q01DX001 (ip), vehicle: saline
[9] = endpoint: mean survival time, dose: 400.0 mg/kg/injection, schedule: Q01DX001 (ip), vehicle: saline
[10] = endpoint: mean survival time, dose: 100.0 mg/kg/injection, schedule: Q04DX003 (ip), vehicle: saline
[11] = endpoint: mean survival time, dose: 50.0 mg/kg/injection, schedule: Q01DX001 (ip), vehicle: saline

`CCCCCCCCCCCOc1ccc(C=Nc2ccc(C)cc2)cc1` was tested, and the T/C [1] was 101 % of control, the T/C [2] was 98 % of control and the T/C [3] was 98 % of control.
For `CC(=O)Nc1ccc2ccccc2c1-c1c(NC(C)=O)ccc2ccccc12`, the T/C (endpoint: mean survival time, dose: 25.0 mg/kg/injection, schedule: Q04DX002 (ip), vehicle: saline with Tween-80) was 97 % of control and the T/C (endpoint: mean survival time, dose: 50.0 mg/kg/injection, schedule: Q04DX002 (ip), vehicle: saline with Tween-80) was 90 % of control.
`Cl` was tested, and the T/C (endpoint: mean survival time, dose: 50.0 mg/kg/injection, schedule: Q01DX009 (oral), vehicle: water) was 97 % of control, the T/C (endpoint: median survival time, dose: 15.0 mg/kg/injection, schedule: Q01DX009 (ip), vehicle: water) was 87 % of control and the T/C (endpoint: median survival time, dose: 30.0 mg/kg/injection, schedule: Q01DX009 (ip), vehicle: water) was 100 % of control. The T/C (endpoint: median survival time, dose: 60.0 mg/kg/injection, schedule: Q01DX009 (ip), vehicle: water) was 112 % of control and the T/C (endpoint: median survival time, dose: 90.0 mg/kg/injection, schedule: Q01DX009 (ip), vehicle: water) was 112 % of control.
For `O=C1C2C=CC=CC1C=C2`, the T/C [4] was 89 % of control, the T/C (endpoint: mean survival time, dose: 100.0 mg/kg/injection, schedule: Q01DX001 (ip), vehicle: Klucel (hydroxypropylcellulose) (HPC)) was 92 % of control and the T/C [5] was 112 % of control. The T/C (endpoint: mean survival time, dose: 200.0 mg/kg/injection, schedule: Q01DX001 (ip), vehicle: Klucel (hydroxypropylcellulose) (HPC)) was 101 % of control, the T/C [6] was 91 % of control and the T/C (endpoint: mean survival time, dose: 400.0 mg/kg/injection, schedule: Q01DX001 (ip), vehicle: Klucel (hydroxypropylcellulose) (HPC)) was 95 % of control.
`CCCCCC1(C)OCC(C)(C)N1O` (stereo not drawn) was tested, and the T/C [7] was 104 % of control, the T/C [8] was 102 % of control and the T/C [9] was 111 % of control.
`CCOC(=O)C1(C)OC1c1ccc2c(c1)OCO2` (stereo not drawn) was tested, and the T/C (endpoint: mean survival time, dose: 100.0 mg/kg/injection, schedule: Q01DX009 (ip), vehicle: saline with Tween-80) was 106 % of control, the T/C (endpoint: mean survival time, dose: 200.0 mg/kg/injection, schedule: Q01DX009 (ip), vehicle: saline with Tween-80) was 95 % of control and the T/C (endpoint: mean survival time, dose: 400.0 mg/kg/injection, schedule: Q01DX009 (ip), vehicle: saline with Tween-80) was 103 % of control.
`Nc1nc2c(c(-c3ccc(Cl)cc3)n1)CN(CCC(=O)O)C2=O` was tested, and the T/C [7] was 100 % of control, the T/C [10] was 98 % of control and the T/C [8] was 105 % of control. For the same molecule, the T/C (endpoint: mean survival time, dose: 200.0 mg/kg/injection, schedule: Q04DX003 (ip), vehicle: saline) was 98 % of control, the T/C [9] was 102 % of control and the T/C (endpoint: mean survival time, dose: 400.0 mg/kg/injection, schedule: Q04DX003 (ip), vehicle: saline) was 98 % of control.
`CC1C2CCC1(C)C(C=O)C2` (stereo not drawn) was tested, and the T/C (endpoint: mean survival time, dose: 75.0 mg/kg/injection, schedule: Q01DX001 (ip), vehicle: saline) was 93 % of control, the T/C (endpoint: mean survival time, dose: 150.0 mg/kg/injection, schedule: Q01DX001 (ip), vehicle: saline) was 88 % of control and the T/C (endpoint: mean survival time, dose: 300.0 mg/kg/injection, schedule: Q01DX001 (ip), vehicle: saline) was 88 % of control.
For `CCN(CC)CCC#N`, the T/C [11] was 94 % of control, the T/C [7] was 94 % of control and the T/C [8] was 100 % of control.
With `COc1cc(Cc2nccc3cc(OC)c(OC)cc23)c(C(C)=O)cc1OC` the T/C (endpoint: mean survival time, dose: 0.9 mg/kg/injection, schedule: Q03HX024 (ip), vehicle: saline) was 98 % of control, the T/C (endpoint: mean survival time, dose: 1.8 mg/kg/injection, schedule: Q03HX024 (ip), vehicle: saline) was 97 % of control and the T/C (endpoint: mean survival time, dose: 2.9 mg/kg/injection, schedule: Q01DX Z (ip), vehicle: saline) was 107 % of control. For the same molecule, the T/C (endpoint: mean survival time, dose: 3.5 mg/kg/injection, schedule: Q03HX024 (ip), vehicle: saline) was 107 % of control, the T/C (endpoint: mean survival time, dose: 4.4 mg/kg/injection, schedule: Q01DX Z (ip), vehicle: saline) was 111 % of control and the T/C (endpoint: mean survival time, dose: 6.6 mg/kg/injection, schedule: Q01DX Z (ip), vehicle: saline) was 115 % of control. The T/C (endpoint: mean survival time, dose: 7.0 mg/kg/injection, schedule: Q03HX024 (ip), vehicle: saline) was 111 % of control, the T/C (endpoint: mean survival time, dose: 7.0 mg/kg/injection, schedule: Q04DX003 (ip), vehicle: saline) was 97 % of control and the T/C (endpoint: mean survival time, dose: 10.0 mg/kg/injection, schedule: Q01DX Z (ip), vehicle: saline) was 119 % of control. The T/C (endpoint: mean survival time, dose: 14.0 mg/kg/injection, schedule: Q04DX003 (ip), vehicle: saline) was 104 % of control, the T/C (endpoint: mean survival time, dose: 22.0 mg/kg/injection, schedule: Q01DX009 (ip), vehicle: saline) was 121 % of control and the T/C (endpoint: mean survival time, dose: 28.0 mg/kg/injection, schedule: Q04DX003 (ip), vehicle: saline) was 120 % of control. The T/C (endpoint: mean survival time, dose: 33.0 mg/kg/injection, schedule: Q01DX009 (ip), vehicle: saline) was 109 % of control, the T/C (endpoint: mean survival time, dose: 35.0 mg/kg/injection, schedule: Q01DX009 (ip), vehicle: saline) was 121 % of control and the T/C (endpoint: mean survival time, dose: 50.0 mg/kg/injection, schedule: Q01DX009 (ip), vehicle: saline) was 154 % of control. The T/C (endpoint: mean survival time, dose: 56.0 mg/kg/injection, schedule: Q04DX003 (ip), vehicle: saline) was 118 % of control, the T/C (endpoint: mean survival time, dose: 75.0 mg/kg/injection, schedule: Q01DX009 (ip), vehicle: saline) was 108 % of control and the T/C (endpoint: mean survival time, dose: 75.0 mg/kg/injection, schedule: Q01DX Z (ip), vehicle: saline) was 93 % of control.
For `CCCC(CCN1CCCC1)(CNC(=O)CN(CC)CC)c1cccc2ccccc12` (stereo not drawn), the T/C (endpoint: mean survival time, dose: 25.0 mg/kg/injection, schedule: Q04DX003 (ip), vehicle: saline) was 103 % of control, the T/C (endpoint: mean survival time, dose: 50.0 mg/kg/injection, schedule: Q04DX003 (ip), vehicle: saline) was 104 % of control and the T/C [10] was 106 % of control.
`CC(=O)OCCC/C(=C\c1ccccc1)[N+](=O)[O-]` was tested, and the T/C [7] was 107 % of control.
In the case of `C=CCN(CC=C)P(=O)(N1CC1C)N1CC1C` (stereo not drawn), the T/C (endpoint: mean survival time, dose: 1.0 mg/kg/injection, schedule: Q01DX009 (ip), vehicle: saline) is reported as 124 % of control and the T/C (endpoint: mean survival time, dose: 3.0 mg/kg/injection, schedule: Q01DX009 (ip), vehicle: saline) is reported as 172 % of control.
In the case of `O=C1c2ccccc2C(=O)C1N=Nc1ccccc1`, the T/C [11] is reported as 102 % of control, the T/C [7] is reported as 100 % of control and the T/C [8] is reported as 94 % of control. The T/C [9] was 96 % of control.
With `C1CCC2(CC1)CCCCC2` the T/C (endpoint: mean survival time, dose: 5.0 mg/kg/injection, schedule: Q01DX001 (ip), vehicle: saline) was 97 % of control, the T/C (endpoint: mean survival time, dose: 10.0 mg/kg/injection, schedule: Q01DX001 (ip), vehicle: saline) was 103 % of control and the T/C (endpoint: mean survival time, dose: 20.0 mg/kg/injection, schedule: Q01DX001 (ip), vehicle: saline) was 93 % of control. For the same molecule, the T/C (endpoint: mean survival time, dose: 40.0 mg/kg/injection, schedule: Q01DX001 (ip), vehicle: saline) was 97 % of control and the T/C (endpoint: mean survival time, dose: 80.0 mg/kg/injection, schedule: Q01DX001 (ip), vehicle: saline) was 100 % of control.
`CC1C(C(=O)c2ccc(-c3ccccc3)cc2)N1C1CCCCC1` (stereo not drawn) was tested, and the T/C (endpoint: mean survival time, dose: 100.0 mg/kg/injection, schedule: Q04DX003 (ip), vehicle: saline with Tween-80) was 93 % of control and the T/C (endpoint: mean survival time, dose: 200.0 mg/kg/injection, schedule: Q04DX003 (ip), vehicle: saline with Tween-80) was 86 % of control.
For `O=C1CCC2c3ccccc3-c3cccc1c32` (stereo not drawn), the T/C (endpoint: mean survival time, dose: 50.0 mg/kg/injection, schedule: Q01DX001 (ip), vehicle: carboxymethylcellulose (CMC)) was 100 % of control, the T/C (endpoint: mean survival time, dose: 100.0 mg/kg/injection, schedule: Q01DX001 (ip), vehicle: carboxymethylcellulose (CMC)) was 91 % of control and the T/C (endpoint: mean survival time, dose: 200.0 mg/kg/injection, schedule: Q01DX001 (ip), vehicle: carboxymethylcellulose (CMC)) was 96 % of control. The T/C (endpoint: mean survival time, dose: 400.0 mg/kg/injection, schedule: Q01DX001 (ip), vehicle: carboxymethylcellulose (CMC)) was 102 % of control.
For `CC(C)=CCC(CCN1CCCC1)(C(N)=O)c1cccc2ccccc12` (stereo not drawn), the T/C (endpoint: mean survival time, dose: 5.0 mg/kg/injection, schedule: Q01DX009 (ip), vehicle: Klucel (hydroxypropylcellulose) (HPC)) was 102 % of control, the T/C (endpoint: mean survival time, dose: 5.0 mg/kg/injection, schedule: Q04DX003 (ip), vehicle: Klucel (hydroxypropylcellulose) (HPC)) was 98 % of control and the T/C (endpoint: mean survival time, dose: 10.0 mg/kg/injection, schedule: Q01DX009 (ip), vehicle: Klucel (hydroxypropylcellulose) (HPC)) was 95 % of control. For the same molecule, the T/C (endpoint: mean survival time, dose: 10.0 mg/kg/injection, schedule: Q04DX003 (ip), vehicle: Klucel (hydroxypropylcellulose) (HPC)) was 104 % of control, the T/C (endpoint: mean survival time, dose: 20.0 mg/kg/injection, schedule: Q01DX009 (ip), vehicle: Klucel (hydroxypropylcellulose) (HPC)) was 98 % of control and the T/C (endpoint: mean survival time, dose: 20.0 mg/kg/injection, schedule: Q04DX003 (ip), vehicle: Klucel (hydroxypropylcellulose) (HPC)) was 104 % of control.
For `O=C(Nc1cccc2ccccc12)c1cccc([N+](=O)[O-])c1C(=O)O`, the T/C (endpoint: mean survival time, dose: 100.0 mg/kg/injection, schedule: Q04DX002 (ip), vehicle: Klucel (hydroxypropylcellulose) (HPC)) was 99 % of control, the T/C (endpoint: mean survival time, dose: 200.0 mg/kg/injection, schedule: Q04DX002 (ip), vehicle: Klucel (hydroxypropylcellulose) (HPC)) was 92 % of control and the T/C (endpoint: mean survival time, dose: 400.0 mg/kg/injection, schedule: Q04DX002 (ip), vehicle: Klucel (hydroxypropylcellulose) (HPC)) was 96 % of control.
For `N#CC(C(=O)c1ccccc1)c1cccc2ccccc12` (stereo not drawn), the T/C [4] was 101 % of control, the T/C [5] was 95 % of control and the T/C [1] was 95 % of control. For the same molecule, the T/C [6] was 103 % of control, the T/C [2] was 91 % of control and the T/C [3] was 91 % of control.
